Patent publication US6461997B1, “Triazole sulfones having herbicidal activity” (Monsanto Technology LLC, priority 1999, dated 2002)

What was measured:
[1] = test system: BRAPP (broadleaf signalgrass); assay: Pre-emergence herbicidal activity, warm season; type: in vivo, Brachiaria platyphylla; conditions: GR80 = lowest tested rate (300, 100, 30, 10 g/ha) with 80% or greater inhibition; approx. 14 days after treating; 30/21° C.
Method in brief: (§1)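 Activity is expressed as the rate giving 80% inhibition, with 300, 100, 30 and 10 g/ha typically tested. An asterisk marks activity short of 80% at the top rate. Warm-season grasses were held at 30/21 °C; cool-season blackgrass and wild buckwheat at 18/13 °C; scoring at about 14 days.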

[2] = test system: CHEAL (common lambsquarters); assay: Pre-plant incorporated (PPI) herbicidal activity, warm season; type: in vivo, Chenopodium album; conditions: for Percent inhibition CHEAL: PPI application
Method in brief: (§2)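 PPI simulation: compound in organic solvent sprayed onto weighed cover soil, mixed thoroughly, spread over seeds. Controls: untreated cover soil. 0.64 cm overhead irrigation, then mist/subirrigation. Day/night 30/21° C (warm) or 18/13° C (cool). Read-out ~14 d, % inhibition vs untreated.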

PANDI (fall panicum) = assay: Pre-emergence herbicidal activity, warm season; type: in vivo, Panicum dichotomiflorum; conditions: GR80 = lowest tested rate (300, 100, 30, 10 g/ha) with 80% or greater inhibition; approx. 14 days after treating; 30/21° C.
Method in brief: as §1

SOLNI (black nightshade) = assay: Pre-plant incorporated (PPI) herbicidal activity, warm season; type: in vivo, Solanum nigrum; conditions: for Percent inhibition SOLNI: PPI application
Method in brief: as §2

[3] = test system: CHEAL (common lambsquarters); assay: Pre-emergence herbicidal activity, warm season; type: in vivo, Chenopodium album; conditions: GR80 = lowest tested rate (300, 100, 30, 10 g/ha) with 80% or greater inhibition; approx. 14 days after treating; 30/21° C.
Method in brief: (§3)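 Seeds sown in sterilised fertilised topsoil received surface-applied compound in 50:50 acetone/water, typically at 300, 100, 30 and 10 g/ha, then greenhouse-grown at 30/21° C (warm-season species) or 18/13° C (cool-season species). Percent inhibition versus untreated plants was scored at about 14 days, giving GR80; an asterisk marks activity short of 80% at the top rate.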

[4] = test system: BRAPP (broadleaf signalgrass); assay: Pre-plant incorporated (PPI) herbicidal activity, warm season; type: in vivo, Brachiaria platyphylla; conditions: for Percent inhibition BRAPP: PPI application
Method in brief: as §2

SASKR (russian thistle) = assay: Pre-plant incorporated (PPI) herbicidal activity, cool season; type: in vivo, Salsola kali; conditions: for Percent inhibition SASKR: weed, PPI application
Method in brief: as §2

wheat (TRZAW) = assay: Selectivity test, PPI, cool season crop; type: in vivo, Triticum aestivum; conditions: PPI application
Method in brief: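 Pre-plant incorporated: compound in organic solvent sprayed onto cover soil, mixed and laid over seeds; untreated soil for controls. Greenhouse after treatment: warm season 30/21° C., cool season 18/13° C. day/night. Percent inhibition versus untreated plants scored about 14 days after planting.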

[5] = test system: CIRAR (canada thistle (seedling)); assay: Pre-emergence herbicidal activity, warm season; type: in vivo, Cirsium arvense; conditions: GR80 = lowest tested rate (300, 100, 30, 10 g/ha) with 80% or greater inhibition; approx. 14 days after treating; 30/21° C.
Method in brief: as §3

[6] = test system: SORHA (johnsongrass (seedling)); assay: Pre-emergence herbicidal activity, warm season; type: in vivo, Sorghum halepense; conditions: GR80 = lowest tested rate (300, 100, 30, 10 g/ha) with 80% or greater inhibition; approx. 14 days after treating; 30/21° C.
Method in brief: as §1

POROL (common purslane) = assay: Pre-emergence herbicidal activity, warm season; type: in vivo, Portulaca oleracea; conditions: GR80 = lowest tested rate (300, 100, 30, 10 g/ha) with 80% or greater inhibition; approx. 14 days after treating; 30/21° C.
Method in brief: as §3

[7] = test system: AGSST (creeping bentgrass); assay: Pre-plant incorporated (PPI) herbicidal activity, cool season; type: in vivo, Agrostis stolonifera; conditions: for Percent inhibition AGSST: weed, PPI application
Method in brief: as §2

[8] = pre-plant incorporated, GR80 = lowest tested rate with 80% or greater inhibition, approx. 14 days after treating, 30/21° C.
[9] = pre-plant incorporated, lowest tested rate with 80% or greater inhibition, about 14 days

| SMILES | Pre-emergence activity (GR80) BRAPP [1] [g/ha] | Pre-emergence activity (GR80) PANDI (PANDI (fall panicum)) [g/ha] | Percent inhibition SOLNI (SOLNI (black nightshade); 30 g/ha) [%] | Percent inhibition SOLNI (SOLNI (black nightshade); 100 g/ha) [%] | Percent inhibition SOLNI (SOLNI (black nightshade); 300 g/ha) [%] | Percent inhibition SOLNI (SOLNI (black nightshade); 900 g/ha) [%] | Pre-emergence activity (GR80) CHEAL [3] [g/ha] | Percent inhibition BRAPP ([4]; 30 g/ha) [%] | Percent inhibition BRAPP ([4]; 100 g/ha) [%] | Percent inhibition BRAPP ([4]; 300 g/ha) [%] | Percent inhibition BRAPP ([4]; 900 g/ha) [%] | Percent inhibition SASKR (SASKR (russian thistle); 30 g/ha) [%] | Percent inhibition SASKR (SASKR (russian thistle); 100 g/ha) [%] | Percent inhibition SASKR (SASKR (russian thistle); 300 g/ha) [%] | Percent inhibition SASKR (SASKR (russian thistle); 900 g/ha) [%] | Percent inhibition TRZAW (wheat (TRZAW); 30 g/ha) [%] | Percent inhibition TRZAW (wheat (TRZAW); 100 g/ha) [%] | Percent inhibition TRZAW (wheat (TRZAW); 300 g/ha) [%] | Percent inhibition TRZAW (wheat (TRZAW); 900 g/ha) [%] | Pre-emergence activity (GR80) CIRAR [5] [g/ha] | also measured |
| --- | --- | --- | --- | --- | --- | --- | --- | --- | --- | --- | --- | --- | --- | --- | --- | --- | --- | --- | --- | --- | --- |
| CCN(CC)C(=O)n1cnc(S(=O)(=O)C(F)(F)C(F)(F)Br)n1 [Example 4] | 300 | 30 | 60 | 95 | 100 | 100 | 30 | 0 | 60 | 100 | 100 | 75 | 90 | 99 | 100 | 0 | 10 | 30 | 45 | 30 | Percent inhibition CHEAL ([2]; 30 g/ha): 60%; Percent inhibition CHEAL ([2]; 100 g/ha): 100%; Percent inhibition CHEAL ([2]; 300 g/ha): 100%; Percent inhibition CHEAL ([2]; 900 g/ha): 100%; Pre-emergence activity (GR80) SORHA [6]: 30 g/ha; Pre-emergence activity (GR80) POROL (POROL (common purslane)): 100 g/ha; Percent inhibition AGSST ([7]; 30 g/ha): 100%; Percent inhibition AGSST ([7]; 100 g/ha): 100%; Percent inhibition AGSST ([7]; 300 g/ha): 100%; Percent inhibition AGSST ([7]; 900 g/ha): 100% |
| C=C(CC(F)(F)S(=O)(=O)c1ncn(C(=O)N(CC)CC)n1)C[Si](C)(C)C [Example 20] | 300 | 300 | 0 | 0 | 30 | 100 | 300 | 0 | 0 | 30 | 60 | 0 | 40 | 0 | 100 | 0 | 0 | 40 | 60 | 100 | PPI activity (GR80) CHEAL [2, 8]: 30 g/ha; Percent inhibition SOLNI (SOLNI (black nightshade); 10 g/ha): 0%; PPI activity (GR80) SOLNI (SOLNI (black nightshade); [8]): 100 g/ha; Percent inhibition BRAPP ([4]; 10 g/ha): 0%; PPI activity GR80, BRAPP [4, 9]: 100 g/ha; PPI activity GR80, SASKR (SASKR (russian thistle); [9]): 300 g/ha; Percent inhibition SASKR (SASKR (russian thistle); 10 g/ha): 0%; Percent inhibition TRZAW (wheat (TRZAW); 10 g/ha): 0%; Pre-emergence activity (GR80) SORHA [6]: 300 g/ha; Pre-emergence activity (GR80) POROL (POROL (common purslane)): 300 g/ha; PPI activity GR80, AGSST [7, 9]: 30 g/ha; Percent inhibition AGSST ([7]; 10 g/ha): 0%; Percent inhibition AGSST ([7]; 30 g/ha): 10%; Percent inhibition AGSST ([7]; 100 g/ha): 85%; Percent inhibition AGSST ([7]; 300 g/ha): 75%; Percent inhibition AGSST ([7]; 900 g/ha): 100% |
